Experimental data reported in patent publication US12083094B2, “Cannabinoid composition and methods of treatment using the same” (CANNPAL ANIMAL THERAPEUTICS LIMITED, priority 2018, dated 2024).
Several values for one entry are separate records, joined by “and”; a condition that tells them apart may be missing. Identical values can stand only once.

Assay: Blood sampling for THC and CBD plasma concentration after single oral dosing
Details: for concentration at 12 h: 12 hours post administration; for AUC: AUC for CBD concentration, canine
Description: Two compositions, IVP1 and IVP2, were administered in varying amounts in the study.
Dosage volumes were calculated prior to Day 0, to provide the target dosage in mg/kg bodyweight based on actual dog bodyweights and IVP active ingredient composition based on the Certificates of Analysis.
Blood samples of approximately 5 mL were collected at each drug concentration sampling time-point from each animal using 22-gauge needles and 5 mL syringes.
The data points from Table 4 and Table 5 were also plotted and these graphs are set out in FIGS. 1-16.

C=C(C)[C@@H]1CCC(C)=C[C@H]1c1c(O)cc(CCCCC)cc1O [CBD, Cannabidiol]
concentration at 32 h (dog, plasma, oral, CBD concentration in blood plasma, mean of dogs 5-8, 0.24 mg/kg CBD + 0.12 mg/kg THC oral once, 32 h): 0.34 ng/mL | concentration at 48 h (dog, plasma, oral, CBD concentration in blood plasma, mean of dogs 5-8, 0.24 mg/kg CBD + 0.12 mg/kg THC oral once, 48 h): 0.13 ng/mL | concentration at 72 h (dog, plasma, oral, CBD concentration in blood plasma, mean of dogs 5-8, 0.24 mg/kg CBD + 0.12 mg/kg THC oral once, 72 h): 0 ng/mL | concentration at 16 h (dog, plasma, oral, CBD concentration recorded in subjects, 16 hours post administration): 0.26 ng/mL | concentration at 32 h (dog, plasma, oral, CBD concentration recorded in subjects, 32 hours post administration): 0.28 ng/mL | concentration at 12 h (dog, plasma, oral, highest level of CBD recorded): 0.88 ng/mL | concentration at 12 h (dog, plasma, oral, lowest level of CBD recorded in a subject): 0.23 ng/mL | half-life (dog, plasma, po): 12.6 h | AUC (dog, plasma, po, 0.12 mg/kg, 0.12 mg/kg CBD in combination with 0.24 mg/kg THC): 30 to 50 ng·h/mL | Cmax (dog, plasma, po, 0.24 mg/kg): 5 to 69 ng/mL | AUC (dog, plasma, po, 0.24 mg/kg, 0.24 mg/kg CBD in combination with 0.12 mg/kg THC): 95 to 110 ng·h/mL | CBD concentration in blood plasma (individual dogs 1-4, 0.12 mg/kg CBD + 0.24 mg/kg THC oral once, 0 h): 0 ng/mL | CBD concentration in blood plasma (individual dogs 1-4, 0.12 mg/kg CBD + 0.24 mg/kg THC oral once, 0.67 h): 15.60 ng/mL and 18.10 ng/mL and 5.26 ng/mL and 10.10 ng/mL | CBD concentration in blood plasma (individual dogs 1-4, 0.12 mg/kg CBD + 0.24 mg/kg THC oral once, 1 h): 12.00 ng/mL and 13.60 ng/mL and 5.99 ng/mL and 13.10 ng/mL | CBD concentration in blood plasma (individual dogs 1-4, 0.12 mg/kg CBD + 0.24 mg/kg THC oral once, 1.5 h): 7.99 ng/mL and 9.07 ng/mL and 9.84 ng/mL | CBD concentration in blood plasma (individual dogs 1-4, 0.12 mg/kg CBD + 0.24 mg/kg THC oral once, 2 h): 4.48 ng/mL and 8.08 ng/mL and 8.72 ng/mL | CBD concentration in blood plasma (individual dogs 1-4, 0.12 mg/kg CBD + 0.24 mg/kg THC oral once, 3 h): 2.83 ng/mL and 2.33 ng/mL and 5.83 ng/mL and 6.25 ng/mL | CBD concentration in blood plasma (individual dogs 1-4, 0.12 mg/kg CBD + 0.24 mg/kg THC oral once, 4 h): 1.95 ng/mL and 1.24 ng/mL and 4.08 ng/mL and 4.31 ng/mL | CBD concentration in blood plasma (individual dogs 1-4, 0.12 mg/kg CBD + 0.24 mg/kg THC oral once, 6 h): 1.56 ng/mL and 0.76 ng/mL and 2.99 ng/mL and 2.75 ng/mL | CBD concentration in blood plasma (individual dogs 1-4, 0.12 mg/kg CBD + 0.24 mg/kg THC oral once, 8 h): 1.12 ng/mL and 0.53 ng/mL and 1.23 ng/mL and 2.32 ng/mL | CBD concentration in blood plasma (individual dogs 1-4, 0.12 mg/kg CBD + 0.24 mg/kg THC oral once, 12 h): 0.48 ng/mL and 0.23 ng/mL and 0.37 ng/mL and 0.55 ng/mL | CBD concentration in blood plasma (individual dogs 1-4, 0.12 mg/kg CBD + 0.24 mg/kg THC oral once, 16 h): 0.00 ng/mL (2×) and 0.26 ng/mL and 0.36 ng/mL | CBD concentration in blood plasma (individual dogs 1-4, 0.12 mg/kg CBD + 0.24 mg/kg THC oral once, 24 h): 0.00 ng/mL and 0.23 ng/mL | CBD concentration in blood plasma (individual dogs 5-8, 0.24 mg/kg CBD + 0.12 mg/kg THC oral once, 0 h): 0 ng/mL | CBD concentration in blood plasma (individual dogs 5-8, 0.24 mg/kg CBD + 0.12 mg/kg THC oral once, 0.67 h): 28.70 ng/mL and 28.10 ng/mL and 10.20 ng/mL and 53.40 ng/mL | CBD concentration in blood plasma (individual dogs 5-8, 0.24 mg/kg CBD + 0.12 mg/kg THC oral once, 1 h): 35.20 ng/mL and 20.10 ng/mL and 18.90 ng/mL and 69.10 ng/mL | CBD concentration in blood plasma (individual dogs 5-8, 0.24 mg/kg CBD + 0.12 mg/kg THC oral once, 1.5 h): 33.20 ng/mL and 27.00 ng/mL and 12.70 ng/mL and 34.60 ng/mL | CBD concentration in blood plasma (individual dogs 5-8, 0.24 mg/kg CBD + 0.12 mg/kg THC oral once, 2 h): 14.90 ng/mL and 12.60 ng/mL and 20.30 ng/mL | CBD concentration in blood plasma (individual dogs 5-8, 0.24 mg/kg CBD + 0.12 mg/kg THC oral once, 3 h): 6.33 ng/mL and 6.79 ng/mL and 7.66 ng/mL | CBD concentration in blood plasma (individual dogs 5-8, 0.24 mg/kg CBD + 0.12 mg/kg THC oral once, 4 h): 4.07 ng/mL and 4.40 ng/mL and 4.36 ng/mL | CBD concentration in blood plasma (individual dogs 5-8, 0.24 mg/kg CBD + 0.12 mg/kg THC oral once, 6 h): 3.40 ng/mL and 2.22 ng/mL and 5.74 ng/mL and 1.87 ng/mL | CBD concentration in blood plasma (individual dogs 5-8, 0.24 mg/kg CBD + 0.12 mg/kg THC oral once, 8 h): 4.68 ng/mL and 1.23 ng/mL and 4.36 ng/mL and 0.91 ng/mL | CBD concentration in blood plasma (individual dogs 5-8, 0.24 mg/kg CBD + 0.12 mg/kg THC oral once, 12 h): 0.63 ng/mL and 0.85 ng/mL and 0.72 ng/mL | CBD concentration in blood plasma (individual dogs 5-8, 0.24 mg/kg CBD + 0.12 mg/kg THC oral once, 16 h): 0.49 ng/mL and 0.65 ng/mL and 0.47 ng/mL | CBD concentration in blood plasma (individual dogs 5-8, 0.24 mg/kg CBD + 0.12 mg/kg THC oral once, 24 h): 0.28 ng/mL (2×) and 0.46 ng/mL | CBD concentration in blood plasma (individual dogs 5-8, 0.24 mg/kg CBD + 0.12 mg/kg THC oral once, 32 h): 0.39 ng/mL (2×) and 0.32 ng/mL | CBD concentration in blood plasma (individual dogs 5-8, 0.24 mg/kg CBD + 0.12 mg/kg THC oral once, 48 h): 0.00 ng/mL (2×) and 0.22 ng/mL and 0.31 ng/mL | CBD concentration in blood plasma (individual dogs 5-8, 0.24 mg/kg CBD + 0.12 mg/kg THC oral once, 72 h): 0.00 ng/mL | CBD in the subject's blood (up to 72 h after administration): detectable
